Two compounds from patent US20240416143A1, “PHOTONIC ANTIMICROBIAL WOUND SURFACE DRESSING” (The General Hospital Corporation, priority 2021, published 2024) can be followed below.

What all share (experiment): Photoinactivation of 48-hour in vitro biofilms by adjuvant/antibiotic + antimicrobial blue light
Test [1] relates to P. aeruginosa biofilm. Format: cell-based, Pseudomonas aeruginosa. The note with it: 48 h biofilm; aBL 405 nm, 50-250 J/cm^2. The procedure:
The bacterial suspension was grown in a shaking incubator overnight in BHI broth. Cells were collected by centrifugation at 4,000 rpm for 5 minutes and suspended in PBS at a density of 10^6 CFU/mL. Then, the biofilms were grown for 48 hours (unless otherwise specified) in 96-well microtiter plates as described previously [Ref. 27], with a renewal of the media every 24 hours. Following the 48-hour biofilm growth, fresh 200 μL of PBS with or without menadione in different concentrations were added to the wells and the biofilms were incubated in the dark at 25° C. for 1 hour: 0, 0.5, 1, and 2 μg/mL for MRSA USA300, AF0001, IQ0064; […]; and 0, 100, and 150 μg/mL for E. coli ATCC 25922. After that, the control and the menadione-treated biofilms were maintained without irradiation (“menadione/dark”). Simultaneously, the aBL was delivered to the other biofilm groups testing different power densities (50, 30, 15, and 10 mW/cm^2) while keeping the same radiant exposure of 250 J/cm^2. After the light exposure, the biofilms were carefully washed two times with PBS and 200 μL of PBS was added to each well. Then, the bacterial biofilms in each well were harvested by scratching with a sterile pipette tip and three wells of each group were pooled together in a 1.5 mL microcentrifuge tube. The total volume obtained, 600 μL (3 wells), was sonicated using a Branson 2510 Water Bath Sonicator (Marshall Scientific, LLC) for 5 minutes and the CFU was determined by 10-fold serial dilutions in PBS on BHI agar plates. CFU was counted after overnight incubation at 37° C. Experiments were performed in triplicate.
(§1) A bacterial suspension was grown in a shaking incubator overnight in BHI broth. Cells were collected by centrifugation at 4,000 rpm for 5 minutes and suspended in PBS at a density of 10^6 CFU/mL. Then, the biofilms were grown for 48 hours in 96-well microtiter plates with a renewal of the media every 24 hours. Following the 48-hour biofilm growth, fresh 200 μL of PBS with the tetracyclines minocycline, doxycycline, and demeclocycline in different concentrations were added to the wells and the biofilms were incubated in the dark at 25° C. for 1 hour: 0, 0.25, 0.5, and 1 μg/mL for minocycline; 0, 0.5, 1, and 2 μg/mL for doxycycline; and 0, 0.5, 1, and 2 for demeclocycline. After that, the control and the tetracycline-treated biofilms were maintained without irradiation (“menadione/dark”). […] The total volume obtained, 600 μL (3 wells), was sonicated using a Branson 2510 Water Bath Sonicator (Marshall Scientific, LLC) for 5 minutes and the CFU/mL was determined by 10-fold serial dilutions in PBS on BHI agar plates. CFU was counted after overnight incubation at 37° C.

Test [2] relates to MRSA biofilm. Format: cell-based, methicillin-resistant Staphylococcus aureus. Conditions: 48 h biofilm; aBL 405 nm, 50-250 J/cm^2. As for the experimental part:
(§2) The bacterial suspension was grown in a shaking incubator overnight in BHI broth. Cells were collected by centrifugation at 4,000 rpm for 5 minutes and suspended in PBS at a density of 10^6 CFU/mL. Then, the biofilms were grown for 48 hours (unless otherwise specified) in 96-well microtiter plates as described previously [Ref. 27], with a renewal of the media every 24 hours. Following the 48-hour biofilm growth, fresh 200 μL of PBS with or without menadione in different concentrations were added to the wells and the biofilms were incubated in the dark at 25° C. for 1 hour: 0, 0.5, 1, and 2 μg/mL for MRSA USA300, AF0001, IQ0064; 0, 1, 10, 30 and 50 μg/mL for P. aeruginosa PA01; and 0, 100, and 150 μg/mL for E. coli ATCC 25922. After that, the control and the menadione-treated biofilms were maintained without irradiation (“menadione/dark”). Simultaneously, the aBL was delivered to the other biofilm groups testing different power densities (50, 30, 15, and 10 mW/cm^2) while keeping the same radiant exposure of 250 J/cm^2. After the light exposure, the biofilms were carefully washed two times with PBS and 200 μL of PBS was added to each well. Then, the bacterial biofilms in each well were harvested by scratching with a sterile pipette tip and three wells of each group were pooled together in a 1.5 mL microcentrifuge tube. The total volume obtained, 600 μL (3 wells), was sonicated using a Branson 2510 Water Bath Sonicator (Marshall Scientific, LLC) for 5 minutes and the CFU was determined by 10-fold serial dilutions in PBS on BHI agar plates. CFU was counted after overnight incubation at 37° C. Experiments were performed in triplicate.
A bacterial suspension was grown in a shaking incubator overnight in BHI broth. Cells were collected by centrifugation at 4,000 rpm for 5 minutes and suspended in PBS at a density of 10^6 CFU/mL. Then, the biofilms were grown for 48 hours in 96-well microtiter plates with a renewal of the media every 24 hours. Following the 48-hour biofilm growth, fresh 200 μL of PBS with the tetracyclines minocycline, doxycycline, and demeclocycline in different concentrations were added to the wells and the biofilms were incubated in the dark at 25° C. for 1 hour: 0, 0.25, 0.5, and 1 μg/mL for minocycline; 0, 0.5, 1, and 2 μg/mL for doxycycline; and 0, 0.5, 1, and 2 for demeclocycline. After that, the control and the tetracycline-treated biofilms were maintained without irradiation (“menadione/dark”). Simultaneously, the aBL (405 nm) was delivered to the other biofilm groups testing different power densities (50, 30 mW/cm^2) while keeping the radiant exposures of 50-250 J/cm^2. After the light exposure, the biofilms were carefully washed two times with PBS and 200 μL of PBS was added to each well. Then, the bacterial biofilms in each well were harvested by scratching with a sterile pipette tip and three wells of each group were pooled together in a 1.5 mL microcentrifuge tube. The total volume obtained, 600 μL (3 wells), was sonicated using a Branson 2510 Water Bath Sonicator (Marshall Scientific, LLC) for 5 minutes and the CFU/mL was determined by 10-fold serial dilutions in PBS on BHI agar plates. CFU was counted after overnight incubation at 37° C.

The test system of test [3] is E. coli biofilm. The format is cell-based, Escherichia coli. The note with it: 48 h biofilm; aBL 405 nm, 50-250 J/cm^2. The procedure:
as §2, §1

Test [4] concerns MRSA biofilm. The format is cell-based, methicillin-resistant Staphylococcus aureus. Conditions: 48 h biofilm.

With `CN(C)[C@@H]1C(O)=C(C(N)=O)C(=O)[C@@]2(O)C(O)=C3C(=O)c4c(O)ccc(Cl)c4[C@@H](O)[C@H]3C[C@@H]12` [demeclocycline], the “antimicrobial effect of aBL combined with tetracycline” value in test [1], in test [2] and in test [3] was “enhancement in antimicrobial effects” throughout.
Turning to `CN[C@H](CC(C)C)C(=O)N[C@H]1C(=O)N[C@@H](CC(N)=O)C(=O)N[C@H]2C(=O)N[C@H]3C(=O)N[C@H](C(=O)N[C@H](C(=O)O)c4cc(O)cc(O)c4-c4cc3ccc4O)[C@H](O)c3ccc(c(Cl)c3)Oc3cc2cc(c3O[C@@H]2O[C@H](CO)[C@@H](O)[C@H](O)[C@H]2O[C@H]2C[C@](C)(N)[C@H](O)[C@H](C)O2)Oc2ccc(cc2Cl)[C@H]1O` [vancomycin], the “killing in biofilm by vancomycin combined with aBL” value in test [4] (vancomycin 500 μg/mL + aBL 50 mW/cm^2, 250 J/cm^2) is 2.65 log10 CFU/mL. For the same compound, the “effect on biofilms of vancomycin combined with aBL” value in test [4] (vancomycin 1 mg/mL) is recorded as “only minimal effects”. Besides, the “improvement of aBL antimicrobial effect by vancomycin” value in test [4] (vancomycin 5, 15 and 50 μg/mL + aBL 250 J/cm^2) is “did not show any improvement”.
